Measured values from ChEMBL document CHEMBL1145275, “Dihydroindenoisoquinolines function as prodrugs of indenoisoquinolines” (2005).
Blank lines part the entries; values can stand above or below the compound they belong to.

Columns and labels:
[1] = target: T1, DNA topoisomerase 1 (Homo sapiens) (UniProt P11387); experiment: Concentration tested for Top1-mediated DNA cleavage (concentration taken upto 100 uM); +++: Good activity; type: functional
T1 sequence (whole entry): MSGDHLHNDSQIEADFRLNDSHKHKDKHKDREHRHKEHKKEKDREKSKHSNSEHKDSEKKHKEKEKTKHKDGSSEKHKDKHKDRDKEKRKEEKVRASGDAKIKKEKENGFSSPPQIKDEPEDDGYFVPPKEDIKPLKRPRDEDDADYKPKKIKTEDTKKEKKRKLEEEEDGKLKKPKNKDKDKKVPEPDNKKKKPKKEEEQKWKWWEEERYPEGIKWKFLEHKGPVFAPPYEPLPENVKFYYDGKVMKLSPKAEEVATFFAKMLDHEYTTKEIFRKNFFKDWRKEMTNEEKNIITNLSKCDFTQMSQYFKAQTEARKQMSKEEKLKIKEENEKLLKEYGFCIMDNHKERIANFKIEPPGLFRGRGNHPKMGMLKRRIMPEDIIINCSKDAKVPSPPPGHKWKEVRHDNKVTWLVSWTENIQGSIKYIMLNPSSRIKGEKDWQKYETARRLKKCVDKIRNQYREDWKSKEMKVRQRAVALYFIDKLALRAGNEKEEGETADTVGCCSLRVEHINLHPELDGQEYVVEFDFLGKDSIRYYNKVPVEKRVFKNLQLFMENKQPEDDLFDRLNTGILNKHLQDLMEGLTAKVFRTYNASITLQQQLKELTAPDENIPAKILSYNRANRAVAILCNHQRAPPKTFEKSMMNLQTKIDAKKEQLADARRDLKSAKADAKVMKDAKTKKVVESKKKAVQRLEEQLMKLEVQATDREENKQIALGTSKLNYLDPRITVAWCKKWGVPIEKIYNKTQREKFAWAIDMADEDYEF

[2] = test system: Cell line; experiment: Mean graph midpoint for growth inhibition of all human cancer cell lines; type: functional
[3] = target: T1, DNA topoisomerase 1 (Homo sapiens); experiment: Concentration tested for Top1-mediated DNA cleavage (concentration taken upto 100 uM);0: no activity; type: functional
[4] = target: T1, DNA topoisomerase 1 (Homo sapiens); experiment: Concentration tested for Top1-mediated DNA cleavage;+: weak activity; type: functional
[5] = target: T1, DNA topoisomerase 1 (Homo sapiens); experiment: Concentration tested for Top1-mediated DNA cleavage (concentration taken upto 100 uM);+: weak activity; type: functional
[6] = test system: HOP-62; experiment: Growth inhibition against Lung HOP-62 cell line; type: functional; details: Homo sapiens
[7] = (§1) Growth inhibition against Breast MDA-MB-435 cell line; type: functional; details: Homo sapiens
[8] = Growth inhibition against CNS SF-539 cell line; type: functional; details: Homo sapiens
[9] = (§2) Growth inhibition against Melanoma UACC-62 cell line; type: functional, Homo sapiens
[10] = Growth inhibition against Renal SN12C cell line; type: functional; details: Homo sapiens
[11] = Growth inhibition against Colon HCT116 cell line; type: functional, Homo sapiens, HCT-116
[12] = target: T1, DNA topoisomerase 1 (Homo sapiens); experiment: Concentration tested for Top1-mediated DNA cleavage (concentration taken upto 100 uM); ++: similar activity as the parent compound 3a; type: functional
[13] = test system: OVCAR-3; experiment: Growth inhibition against OvarianOVCAR-3 cell line; type: functional; details: Homo sapiens
[14] = test system: MDA-MB-435; experiment: as §1; type: functional; details: Homo sapiens
[15] = test system: SF-539; experiment: Growth inhibition against CNSSF-539 cell line; type: functional; details: Homo sapiens
[16] = test system: UACC-62; experiment: as §2; type: functional; details: Homo sapiens
[17] = Growth inhibition against ColonHCT-116 cell line; type: functional; details: Homo sapiens
[18] = test system: DU-145; experiment: Growth inhibition against ProstateDU-145 cell line; type: functional; details: Homo sapiens
[19] = test system: P388; experiment: Growth inhibition against P388 cell line; type: functional; details: Mus musculus
[20] = test system: HCT-116; experiment: Ratio of the growth inhibition for HCT116 resistant cells to that of parental cells; Value expressed as RF (resistance factor); type: functional, Homo sapiens
[21] = test system: OVCAR-3; experiment: Growth inhibition against Ovarian OVCAR-3 cell line; type: functional; details: Homo sapiens
[22] = target: T1, DNA topoisomerase 1 (Homo sapiens); experiment: Concentration tested for Top1-mediated DNA cleavage (concentration taken upto 100 uM); type: functional
[23] = test system: P388; experiment: Ratio of the growth inhibition for P388 resistant cells to that of parental cells; Value expressed as RF (resistance factor); type: functional, Homo sapiens
[24] = test system: DU-145; experiment: Growth inhibition against Prostate DU-145 cell line; type: functional; details: Homo sapiens
[25] = test system: HCT-116; experiment: Growth inhibition against HCT116 DNA topoisomerase 1 in (Top1-deficient and parental tumor cells); type: functional; details: Homo sapiens
[26] = test system: HCT-116; experiment: Growth inhibition against HCT116 cell line; type: functional; details: Homo sapiens
[27] = test system: HCT-116; experiment: Growth inhibition against HCT116 V cell line; type: functional; details: Homo sapiens
[28] = Growth inhibition against P388 cell line in; type: functional
[29] = test system: HCT-116; experiment: Ratio of the growth inhibition for HCT116 Top1 resistant cells to that of parental cells; Value expressed as RF (resistance factor); type: functional, Homo sapiens
[30] = Ratio of the growth inhibition for P388/CPT 45 resistant cells to that of parental cells; Value expressed as RF (resistance factor); type: functional, Homo sapiens
[31] = test system: HCT-116; experiment: Ratio of the growth inhibition for Top1 siRNA cells (HCT116-Top1) to that for the vector-control cells (HCT116-V); Value expressed as RF (resistance factor); type: functional, Homo sapiens

Structure (SMILES): O=C1c2cc3c(cc2-c2c1c1ccc([N+](=O)[O-])cc1c(=O)n2CCCCl)OCO3
Concentration [1]: 100 µM
MGM [2]: 0.83 µM

Structure (SMILES): O=C1c2cc3c(cc2[C@@H]2[C@H]1c1ccc([N+](=O)[O-])cc1C(=O)N2CCCCl)OCO3
MGM [2]: 0.018 µM
Concentration [4]: 100 µM

Structure (SMILES): C=CCn1c2c(c3cc(OC)c(OC)cc3c1=O)C(=O)c1cc3c(cc1-2)OCO3
Concentration [5]: 100 µM
MGM [2]: 4.16 µM

The next lines start with results.

Concentration [3]: 100 µM
Structure (SMILES): C=CCN1C(=O)c2cc(OC)c(OC)cc2[C@H]2C(=O)c3cc4c(cc3[C@H]21)OCO4
MGM [2]: 0.98 µM

Concentration [12]: 100 µM
Structure (SMILES): COc1cc2c(cc1OC)[C@@]1(C)C(=O)c3cc4c(cc3[C@H]1N(C)C2=O)OCO4
GI50 [6]: > 100 µM
MGM [2]: 51.3 µM
GI50 [7]: > 100 µM
GI50 [8]: 96.2 µM
GI50 [9]: 58.1 µM
GI50 ([9]; Homo sapiens, UACC-62): 82.4 µM
GI50 [10]: 26 µM
GI50 [11]: 24 µM
GI50 ([11]; Homo sapiens, HCT-116): 43.5 µM

GI50 [13]: 73 µM
GI50 [14]: 96 µM
GI50 [18]: 37 µM
Concentration [12]: 100 µM
Structure (SMILES): COc1cc2c3c(n(C)c(=O)c2cc1OC)-c1cc2c(cc1C3=O)OCO2
GI50 [6]: 1.3 µM
MGM [2]: 20 µM
GI50 [15]: 41 µM
GI50 [16]: 4.2 µM
GI50 [17]: 35 µM
GI50 [10]: 68 µM

GI50 [19]: 9.88 nM
GI50 [21]: 6.7 µM
Concentration [22]: 100 µM
GI50 [24]: 4.1 µM
GI50 [26]: 59.9 nM
GI50 [27]: 418 nM
Structure (SMILES): COc1cc2c(cc1OC)[C@H]1C(=O)c3cc4c(cc3[C@H]1N(C)C2=O)OCO4
RF [20]: 1
RF [23]: 1
GI50 [6]: 9.4 µM
MGM [2]: 5 µM
GI50 [7]: 17 µM
GI50 [25]: 12 nM
GI50 [8]: 3.1 µM
GI50 [28]: 1260 nM
RF [29]: 35
RF [30]: 128
GI50 ([9]; Homo sapiens, UACC-62): 0.42 µM
RF [31]: 7
GI50 [10]: 2.1 µM
GI50 ([11]; Homo sapiens, HCT-116): 2 µM
